Data published in patent publication US20240174690A1, “ANNULATED 2-AMINO-3-CYANO THIOPHENES AND DERIVATIVES FOR THE TREATMENT OF CANCER” (BOEHRINGER INGELHEIM INTERNATIONAL GMBH, priority 2021, published 2024).
pIC50: −log10 of the molar value. Read-outs that look alike come from different tables or passages of the source.

Key:
[1] = Caco-2 assay (permeability PappAB, PappBA, efflux ratio); assay type: in vitro ADME; details: human, Caco-2, 10 μM test compound, pH 7.4; for Papp A→B at 90 min, 10 μM: apical to basolateral; for efflux ratio at 90 min, 10 μM: efflux ratio PappBA/PappAB, read-out: Caco ER
Text: The assay provides information on the potential of a compound to pass the cell membrane, on the extent of oral absorption as well as on whether the compound is actively transported by uptake and/or efflux transporters. Permeability measurements across polarized, confluent Caco-2 cell monolayers grown on permeable filter supports (Corning, catalog #3391) are used. […] The receiver and donor compartments contain 0.25% bovine serum albumine (BSA) in assay buffer. Passive diffusion and/or active transport of compounds across the monolayer is measured in both apical to basolateral (a-b) and basolateral to apical (b-a) direction. a-b permeability (PappAB) represents drug absorption from the intestine into the blood and b-a permeability (PappBA) drug secretion from the blood back into the intestine via both passive permeability as well as active transport mechanisms mediated by efflux and uptake transporters that are expressed on the Caco-2 cells. After a pre-incubation of 25-30 min at 37° C., at predefined time points (0, 30, 60 and 90 min), samples were taken from the receiver and donor compartment, respectively. Concentrations of test compounds in samples were measured by HPLC/MS/MS, samples from the donor compartment were diluted 1:50 (v:v) with assay buffer, samples from receiver compartment were measured without dilution.
Apparent permeabilities in a-b (PappAB) and b-a (PappBA) directions are calculated according to the formula:
[formula] • Vrec [mL]: buffer volume in receiver compartment • Cdon [μmol/mL]: concentration of test compound in donor compartment at t=0 • ΔCrec: difference between concentrations of test compound in receiver compartment at start and end of incubation time • Δt: Incubation time • Vrec·ΔCrec/Δt [μmol/min]: Amount of compound transferred to receiver compartment per time • A [cm^2]: filter surface
Caco-2 efflux ratios (ER) are calculated as the ratio of PappBA/PappAB.

NCI-H358 cells = test: NCI-H358 CTG proliferation assay (120 h) (NSCLC, G12C); assay type: cell-based, human; details: Homo sapiens
Outline: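 IC50 values derive from four-parameter nonlinear regression of CellTiter-Glo viability (RLU relative to DMSO wells) after 120 h of exposure. Cells were plated in RPMI-1640 + 10% FCS at 2000 per well (assay 1) or 200 per well (assay 2). Untreated cells were measured at compound addition as T0.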

[2] = tested on: KRAS G12D-dependent Ba/F3 cells; test: Ba/F3 proliferation assay, KRAS G12D; assay type: cell-based; details: Mus musculus, BaF3, 72 h, AlamarBlue
Outline: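 IL-3-independent Ba/F3 lines driven by transduced KRAS G12C, G12D or G12V, with puromycin withdrawn about ten days before testing. Viability after compound treatment measured by AlamarBlue fluorescence in duplicate, and values derived by curve fitting.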

AsPC-1 cells = test: AsPC-1 CTG proliferation assay (120 h) (pancreatic cancer, G12D); assay type: cell-based; details: Homo sapiens, ASPC1
Procedure: AsPC-1 CTG Proliferation Assay (120 h) (Pancreatic Cancer, G12D)
The CTG assay is designed to measure quantitatively the proliferation of AsPC-1 cells (ATCC […]), using the CellTiter Glow Assay Kit (Promega G7571). Cells are grown in RPMI medium (ATCC) supplemented with Fetal Calf Serum (Life Technologies, Gibco BRL, Cat. No. 10270-106). On “day 0” 2000 AsPC-1 cells are seeded in 60 μL RPMI ATCC+10% FCS+Penstrep in a 384-well plate, flat and clear bottom (Greiner, PNr. 781091). Cells are then incubated in the plates at 37° C. in a CO2 incubator overnight. On day 1, compounds (10 mM stock in DMSO) are added with the ECHO acoustic liquid handler system (Beckman Coulter), including DMSO controls. Plates are incubated for 120 h, and cell viability is measured using CellTiter-Glo luminescent cell viability reagent (Promega product code G7570). Viability (stated as percent of control) is defined as relative luminescence units RLU of each well divided by the RLU of cells in DMSO controls. IC50 values are determined from viability measurements by non-linear regression using a four-parameter model.

SAS cells = test: SAS CTG proliferation assay (120 h) (HNSCC, wt amplified); assay type: cell-based
Procedure: SAS CTG Proliferation Assay (120 h) (HNSCC, Wt Amplified)
SAS cells (JCRB0260) are dispensed into 384-well plates, flat and clear bottom (Greiner, PNr. 781091) at a density of 300 cells per well in 60 μL DMEM:F12 (Gibco 31330-038)+10% Fetal Calf Serum (HyClone, PNr.: SH30084.03) and incubated at 37° C. in a CO2 incubator overnight. The next day, compounds (10 mM stock in DMSO) are added with the ECHO acoustic liquid handler system (Beckman Coulter), including DMSO controls. Plates are incubated for 120 h, and cell viability is measured using CellTiter-Glo luminescent cell viability reagent (Promega product code G7570). Viability (stated as percent of control) is defined as relative luminescence units RLU of each well divided by the RLU of cells in DMSO controls. IC50 values are determined from viability measurements by non-linear regression using a four-parameter model.

[3] = assay 2, CTG, read-out: H358 (assay 2) IC50
[4] = assay 1, CTG, read-out: H358 (assay 1) IC50

Row | Structure (SMILES) | Papp A→B at 90 min, 10 μM [1] [×10⁻⁶ cm/s] | pIC50 (NCI-H358 cells; [3]) | pIC50 [2] | pIC50 (AsPC-1 cells) | pIC50 (SAS cells) | efflux ratio at 90 min, 10 μM [1] | pIC50 (NCI-H358 cells; [4])
1 | C[C@H](Oc1cc(N2CC[C@H](N(C)C)C2)nc(-c2onc3c2CCC[C@@]32CCCc3sc(N)c(C#N)c32)n1)[C@@H]1CCCN1C [I-11] | < 4.1 | 5.70 | 7.62 | 6.25 | 6.19 | – | –
2 | C[C@H](Oc1cc(-n2cc3c(n2)CCNC3)nc(-c2noc3c2CCC[C@@]32CCCc3sc(N)c(C#N)c32)n1)[C@@H]1CCCN1C [II-53] | 1.5 | 6.64 | 7.24 | 6.08 | 5.77 | 22 | –
3 | C[C@H](Oc1cc(N2C[C@H](C)N[C@@H](C)C2)nc(-c2onc3c2CCC[C@@]32CCCc3sc(N)c(C#N)c32)n1)[C@@H]1CCCN1C [I-6] | 2.9 | – | 7.85 | 5.77 | 5.46 | 15 | 6.09
4 | C[C@H](Oc1cc(-c2cncnc2)nc(-c2noc3c2CCC[C@@]32CCCc3sc(N)c(C#N)c32)n1)[C@@H]1CCCN1C [II-82] | 2.5 | 6.09 | 6.70 | 5.26 | 6.00 | 9.2 | –
5 | C[C@H](Oc1cc(-n2cncc3ccnc2-3)nc(-c2noc3c2CCC[C@@]32CCCc3sc(N)c(C#N)c32)n1)[C@@H]1CCCN1C [II-105] | < 10 | 7.34 | 7.43 | 5.88 | 7.26 | 1.1 | –
6 | C[C@H](Oc1cc(N2CCNC3(CC3)C2)nc(-c2noc3c2CCC[C@@]32CCCc3sc(N)c(C#N)c32)n1)[C@@H]1CCCN1C [II-54] | < 1.1 | 6.04 | 9.00 | 7.17 | 6.63 | – | 6.53
7 | C[C@H](Oc1cc(N2CC[C@@H](O)C2)nc(-c2noc3c2CCC[C@@]32CCCc3sc(N)c(C#N)c32)n1)[C@@H]1CCCN1C [II-66] | < 2.9 | 6.23 | 7.15 | 5.40 | 7.22 | – | –
8 | C[C@H](Oc1cc(N2CCN(C)C2=O)nc(-c2noc3c2CCC[C@@]32CCCc3sc(N)c(C#N)c32)n1)[C@@H]1CCCN1C [II-75] | 5 | 8.00 | 7.08 | 5.81 | 7.51 | 5 | 7.31
9 | C[C@H](Oc1cc(N2CCNC[C@]23CCOC3)nc(-c2noc3c2CCC[C@@]32CCCc3sc(N)c(C#N)c32)n1)[C@@H]1CCCN1C [II-50] | 0.3 | 5.57 | 8.15 | 6.85 | 7.39 | 111 | –
10 | C[C@H](Oc1cc(-c2ccn(-c3ccccc3)n2)nc(-c2noc3c2CCC[C@@]32CCCc3sc(N)c(C#N)c32)n1)[C@@H]1CCCN1C [II-89] | < 10 | 6.66 | 6.70 | 5.52 | 6.61 | – | –
11 | C[C@H](Oc1cc(N2CCN(C)CC2)nc(-c2noc3c2CCC[C@@]32CCCc3sc(N)c(C#N)c32)n1)[C@@H]1CCCN1C [II-55] | 3.5 | 6.23 | 7.20 | 6.13 | 6.01 | 5.4 | –
12 | CO[C@@H]1C[C@@H]([C@H](C)Oc2cc(-c3ccn(C)n3)nc(-c3noc4c3CCC[C@@]43CCCc4sc(N)c(C#N)c43)n2)N(C)C1 [II-91] | 9 | 7.72 | 7.19 | 5.65 | 7.15 | 1.6 | 7.11
13 | C[C@H](Oc1cc(-c2ccccn2)nc(-c2noc3c2CCC[C@@]32CCCc3sc(N)c(C#N)c32)n1)[C@@H]1CCCN1C [II-85] | – | 7.64 | 7.14 | 5.89 | 7.59 | 1.2 | –
14 | Cc1cn(-c2cc(O[C@@H](C)[C@@H]3CCCN3C)nc(-c3noc4c3CCC[C@@]43CCCc4sc(N)c(C#N)c43)n2)nn1 [II-106] | 15 | 5.65 | 6.97 | 5.02 | 7.02 | 1.1 | –
15 | C[C@H](Oc1cc(-n2ccnc2)nc(-c2noc3c2CCC[C@@]32CCCc3sc(N)c(C#N)c32)n1)[C@@H]1CCCN1C [II-69] | 4.1 | 6.54 | 7.59 | 5.76 | 6.99 | 5.4 | –
16 | C[C@H](Oc1cc(-c2cnsc2)nc(-c2noc3c2CCC[C@@]32CCCc3sc(N)c(C#N)c32)n1)[C@@H]1CCCN1C [II-111] | – | 6.86 | 7.34 | 5.55 | 7.24 | 1.5 | –
17 | C[C@H](Oc1cc([C@H]2CCOC2)nc(-c2noc3c2CCC[C@@]32CCCc3sc(N)c(C#N)c32)n1)[C@@H]1CCCN1C [II-88] | 12 | 6.90 | 7.82 | 5.70 | 5.65 | 1.8 | –
